Several values for one entry are separate records, joined by “and”; a condition that tells them apart may be missing. Equal entries are not always repeated. Toxic doses and inconclusive results are not listed. The calls were made as follows: active = survival T/C of 150% or more; inactive = T/C below 125% in these data.
Tested on: P388 leukemia ip, CD2F1 mice, survival T/C
Assay: NCI In Vivo Anticancer Drug Screen. Data for tumor model P388 Leukemia (intraperitoneal) in CD2F1 (CDF1) mice
Settings: endpoint: median survival time, higher = longer survival
Outline: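 Mice carrying the transplanted tumor received test compound or vehicle. Survival was recorded in each group, and the value is the treated-group measurement divided by that of the vehicle-treated control group.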

[1] = dose: 100.0 mg/kg/injection, schedule: Q04DX003 (ip), vehicle: saline with Tween-80
[2] = dose: 200.0 mg/kg/injection, schedule: Q04DX003 (ip), vehicle: saline with Tween-80
[3] = dose: 60.0 mg/kg/injection, schedule: Q01DX005 (ip), vehicle: saline with Tween-80
[4] = dose: 120.0 mg/kg/injection, schedule: Q01DX005 (ip), vehicle: saline with Tween-80
[5] = dose: 240.0 mg/kg/injection, schedule: Q01DX005 (ip), vehicle: saline with Tween-80
[6] = dose: 50.0 mg/kg/injection, schedule: Q01DX005 (ip), vehicle: saline with Tween-80
[7] = dose: 30.0 mg/kg/injection, schedule: Q01DX005 (ip), vehicle: saline
[8] = dose: 60.0 mg/kg/injection, schedule: Q01DX005 (ip), vehicle: saline

Measured: T/C

COc1cc(OC)cc(C2OC3=C(Nc4ccc([N+](=O)[O-])cc4N3)C2=O)c1 (stereo not given)
inactive: dose: 60.0 mg/kg/injection, schedule: Q01DX005 (ip), vehicle: Klucel (hydroxypropylcellulose) (HPC) 90 % of control | dose: 120.0 mg/kg/injection, schedule: Q01DX005 (ip), vehicle: Klucel (hydroxypropylcellulose) (HPC) 90 % of control | dose: 240.0 mg/kg/injection, schedule: Q01DX005 (ip), vehicle: Klucel (hydroxypropylcellulose) (HPC) 90 % of control

C[N+](C)(N)CCS(N)(=O)=O
inactive: dose: 50.0 mg/kg/injection, schedule: Q01DX009 (ip), vehicle: saline 103 % of control | dose: 100.0 mg/kg/injection, schedule: Q01DX009 (ip), vehicle: saline 103 % of control | dose: 200.0 mg/kg/injection, schedule: Q01DX009 (ip), vehicle: saline 100 % of control

Cc1ccc2c(c1)C(C(F)(F)F)(C(F)(F)F)OC(C(F)(F)F)(C(F)(F)F)N2
inactive: dose: 50.0 mg/kg/injection, schedule: Q04DX003 (ip), vehicle: saline with Tween-80 104 % of control | [1] 100 % of control | [2] 108 % of control

COc1cc(OC)c(C2CC(C)(N3CCCC3)Oc3cc4c(cc32)OCO4)c(OC)c1 (stereo not given)
inactive: [3] 94 % of control | [4] 91 % of control | [5] 87 % of control

CCOc1cc(/C=N\Nc2nncn2N)c(C)cc1N(CCCl)CCCl
inactive: dose: 50.0 mg/kg/injection, schedule: Q04DX003 (ip), vehicle: saline sonified 116 % of control

CN(C)/C(=N\O)c1ccccc1
inactive: dose: 3.12 mg/kg/injection, schedule: Q04DX003 (ip), vehicle: saline 100 % of control and 105 % of control | dose: 6.25 mg/kg/injection, schedule: Q04DX003 (ip), vehicle: saline 100 % of control and 90 % of control | dose: 12.5 mg/kg/injection, schedule: Q04DX003 (ip), vehicle: saline 100 % of control and 95 % of control

O=[N+]([O-])c1ccc(N=N/C(=N\Nc2ccccc2)c2nc3ccccc3[nH]2)c([N+](=O)[O-])c1
inactive: [6] 97 % of control | dose: 100.0 mg/kg/injection, schedule: Q01DX005 (ip), vehicle: saline with Tween-80 95 % of control | dose: 200.0 mg/kg/injection, schedule: Q01DX005 (ip), vehicle: saline with Tween-80 97 % of control

FC(F)(F)c1nn2c(-c3cnns3)nnc2s1
inactive: dose: 100.0 mg/kg/injection, schedule: Q01DX001 (ip), vehicle: Klucel (hydroxypropylcellulose) (HPC) 98 % of control | dose: 200.0 mg/kg/injection, schedule: Q01DX001 (ip), vehicle: Klucel (hydroxypropylcellulose) (HPC) 99 % of control | dose: 400.0 mg/kg/injection, schedule: Q01DX001 (ip), vehicle: Klucel (hydroxypropylcellulose) (HPC) 104 % of control

O=C([O][Hg][C](F)(F)F)C(F)(F)F
inactive: dose: 1.56 mg/kg/injection, schedule: Q04DX003 (ip), vehicle: saline 104 % of control | dose: 3.13 mg/kg/injection, schedule: Q04DX003 (ip), vehicle: saline 101 % of control

CN(C)C1C(=O)C(C(=O)NCN2CCN(CCO)CC2)=C(O)C2(O)C(=O)C3=C(O)c4c(O)cccc4C(C)(O)C3CC12 (stereo not given)
inactive: dose: 25.0 mg/kg/injection, schedule: Q01DX005 (ip), vehicle: saline 104 % of control | dose: 50.0 mg/kg/injection, schedule: Q01DX005 (ip), vehicle: saline 102 % of control | dose: 100.0 mg/kg/injection, schedule: Q01DX005 (ip), vehicle: saline 104 % of control | dose: 200.0 mg/kg/injection, schedule: Q01DX005 (ip), vehicle: saline 95 % of control

O=C(On1nnc2ccccc2c1=O)c1ccccc1
inactive: dose: 12.5 mg/kg/injection, schedule: Q01DX009 (ip), vehicle: distilled water + Tween-80 100 % of control | dose: 25.0 mg/kg/injection, schedule: Q01DX009 (ip), vehicle: distilled water + Tween-80 102 % of control | dose: 50.0 mg/kg/injection, schedule: Q01DX009 (ip), vehicle: distilled water + Tween-80 94 % of control | dose: 100.0 mg/kg/injection, schedule: Q01DX009 (ip), vehicle: distilled water + Tween-80 106 % of control | dose: 200.0 mg/kg/injection, schedule: Q01DX009 (ip), vehicle: distilled water + Tween-80 103 % of control

COC(=O)CC(OC)c1nc(C(=O)OC)c(C)c(=O)[nH]1 (stereo not given)
inactive: dose: 4.0 mg/kg/injection, schedule: Q01DX009 (ip), vehicle: water 111 % of control | dose: 8.0 mg/kg/injection, schedule: Q01DX009 (ip), vehicle: water 101 % of control | dose: 16.0 mg/kg/injection, schedule: Q01DX009 (ip), vehicle: water 96 % of control | dose: 32.0 mg/kg/injection, schedule: Q01DX009 (ip), vehicle: water 99 % of control | dose: 64.0 mg/kg/injection, schedule: Q01DX009 (ip), vehicle: water 102 % of control | dose: 128.0 mg/kg/injection, schedule: Q01DX009 (ip), vehicle: water 105 % of control

NC(=O)Nc1n[nH]c(-c2ccccc2)n1
inactive: [1] 90 % of control | [2] 90 % of control | dose: 400.0 mg/kg/injection, schedule: Q04DX003 (ip), vehicle: saline with Tween-80 90 % of control

CC(C)=CCSC(N)N
inactive: dose: 7.5 mg/kg/injection, schedule: Q01DX005 (ip), vehicle: saline 99 % of control | dose: 15.0 mg/kg/injection, schedule: Q01DX005 (ip), vehicle: saline 99 % of control | [7] 99 % of control | [8] 101 % of control

Cc1nn(C(C)C(=O)N(C)C)c(Br)c1Br (stereo not given)
inactive: dose: 50.0 mg/kg/injection, schedule: Q01DX009 (ip), vehicle: Klucel (hydroxypropylcellulose) (HPC) 99 % of control | dose: 100.0 mg/kg/injection, schedule: Q01DX009 (ip), vehicle: Klucel (hydroxypropylcellulose) (HPC) 108 % of control | dose: 200.0 mg/kg/injection, schedule: Q01DX009 (ip), vehicle: Klucel (hydroxypropylcellulose) (HPC) 111 % of control

CCN(CC)CCOCCc1ccccc1
inactive: dose: 12.5 mg/kg/injection, schedule: Q01DX005 (ip), vehicle: saline with Tween-80 98 % of control | dose: 25.0 mg/kg/injection, schedule: Q01DX005 (ip), vehicle: saline with Tween-80 98 % of control | [6] 98 % of control and 100 % of control

CCOC(=O)/C=C/C(F)(F)F
inactive: dose: 30.0 mg/kg/injection, schedule: Q01DX005 (ip), vehicle: saline with Tween-80 100 % of control | [7] 94 % of control | [3] 100 % of control | [8] 99 % of control and 101 % of control | [4] 100 % of control | dose: 120.0 mg/kg/injection, schedule: Q01DX005 (ip), vehicle: saline 100 % of control and 101 % of control | [5] 107 % of control | dose: 240.0 mg/kg/injection, schedule: Q01DX005 (ip), vehicle: saline 100 % of control and 120 % of control

CCN(CC)c1ccc2c(-c3ccccc3C(=O)O)c3ccc(=[N+](CC)CC)cc-3oc2c1
inactive: dose: 5.0 mg/kg/injection, schedule: Q01DX009 (ip), vehicle: saline with Tween-80 104 % of control | dose: 10.0 mg/kg/injection, schedule: Q01DX009 (ip), vehicle: saline with Tween-80 104 % of control | dose: 20.0 mg/kg/injection, schedule: Q01DX009 (ip), vehicle: saline with Tween-80 100 % of control

COc1cccc2c1C(=O)c1c(O)c(C(CC(=O)O)OC3CC(N)C(O)C(C)O3)c(CO)c(O)c1C2=O (stereo not given)
inactive: dose: 100.0 mg/kg/injection, schedule: Q04DX003 (ip), vehicle: water 106 % of control | dose: 200.0 mg/kg/injection, schedule: Q04DX003 (ip), vehicle: water 110 % of control

O=c1n(-c2ccccc2)c(=O)n2n1C1C3C4C5C3C2C5(F)C41 (stereo not given)
inactive: dose: 100.0 mg/kg/injection, schedule: Q04DX003 (ip), vehicle: Klucel (hydroxypropylcellulose) (HPC) 103 % of control | dose: 200.0 mg/kg/injection, schedule: Q04DX003 (ip), vehicle: Klucel (hydroxypropylcellulose) (HPC) 104 % of control

Nc1nc(-c2cc(-c3cccc4ccccc34)nc(N)n2)cc(-c2cccc3ccccc23)n1
inactive: dose: 60.0 mg/kg/injection, schedule: Q01DX005 (ip), vehicle: suspension in saline 101 % of control | dose: 120.0 mg/kg/injection, schedule: Q01DX005 (ip), vehicle: suspension in saline 100 % of control | dose: 240.0 mg/kg/injection, schedule: Q01DX005 (ip), vehicle: suspension in saline 105 % of control

Source: PubChem BioAssay AID330 (DTP/NCI, 2004)
